Read-outs that look alike come from different tables or passages of the source. Residues, ends and D or L forms follow the SMILES beside them. No end group written: not given here.
Experiments:
Type in all cases: cell-based
bacteria = experiment: Antibacterial activity of the peptides, broth microdilution MIC, mean activity (Table II); conditions: overnight incubation (18 to 24 h)
Protocol: (§1) Minimum Inhibitory Concentration or MIC for the purpose of this invention is the lowest concentration of an antimicrobial that will inhibit the visible growth of a microorganism after overnight incubation. Minimum inhibitory concentrations are important in diagnostic laboratories to confirm resistance of microorganisms to an antimicrobial agent and also to monitor the activity of new antimicrobial agents. A MIC is generally regarded as the most basic laboratory measurement of the activity of an antimicrobial agent against an organism. MBC is defined as the lowest concentration of an antimicrobial agent needed to kill 99.9% of the initial organism inoculum. Presently, specific guidelines for interpretation are not available; therefore, a clinician knowledgeable in both bactericidal testing and infectious diseases should be available to interpret the results.
(§2) MICs were determined by the broth microdilution method described by the National Committee for Clinical Laboratory Standards (17). Serial twofold dilutions of each peptide solution were prepared (final volume, […]) in microtiter trays with appropriate medium. Each dilution series included control wells containing bacteria without peptide. A total of […] of the adjusted inoculum (100,000 organisms) was added to each well, and then the trays were incubated at
(§3) in ambient air overnight (18 to 24 h). The MIC of each peptide for each isolate was read as the lowest concentration of peptide that inhibited visible growth of the organism.
The above in vitro tests and analyses were conducted on a set of designed peptides of the present invention; and, for comparative purposes, naturally derived molecules.

[1] = test system: red blood cells (erythrocytes); experiment: Hemolytic activity of the peptides (hemoglobin release, absorbance at 412 nm)
Protocol: Hemolysis as defined herein is an in vitro assay where the compounds tendency to lyse red blood cells is determined. Presumably, the compounds that are less hemolytic will be less toxic in vivo. Increasing amounts of compound are added to solutions containing red blood cells and left for a specified time and then lysis is determined spectrophotometrically by measuring hemoglobin release.
A small volume of a suspension of erythrocytes (about 100 million) is kept on ice with a specific amount of lytic peptide. The cells are then placed in a 37° C. water bath for 10 min, vortexed and centrifuged at 1000 g for 2 min. The supernatant was removed and the amount of hemoglobin that was released was determined by the samples' absorbance at 412 nm. Control values without added peptide were subtracted from the absorbance readings.
The numerical difference between the value of the mean of hemolysis and the mean of the activity is a useful way to determine those peptides having the most desired activity.

[2] = test system: agrobacterium, Sinorhizobium, Xanthomonas; experiment: MIC by broth microdilution, mean over B1-B3; conditions: mean of MIC for B1, B2, B3
Protocol: as §1, §2, §3

Xanthomonas = experiment: MIC by broth microdilution; parameters: unit not given here
Protocol: as §1, §2, §3

Sinorhizobium = experiment: MIC by broth microdilution; parameters: unit not given here
Protocol: as §1, §2, §3

agrobacterium = experiment: MIC by broth microdilution; parameters: unit not given here
Protocol: as §1, §2, §3

[3] = erythrocytes, 37° C. for 10 min

Compound	Mean Activity (bacteria) [µM]	Mean of Hemolysis [1] [µM]	further results
CC[C@H](C)[C@H](NC(=O)[C@@H]1CCCN1C(=O)[C@H](CCCNC(=N)N)NC(=O)[C@@H]1CCCN1C(=O)[C@H](Cc1cnc[nH]1)NC(=O)[C@H](CO)NC(=O)[C@@H](NC(=O)[C@@H]1CCCN1C(=O)[C@H](CCCNC(=N)N)NC(=O)[C@@H]1CCCN1C(=O)[C@H](CO)NC(=O)[C@H](Cc1ccc(O)cc1)NC(=O)[C@@H]1CCCN1C(=O)[C@H](CCCNC(=N)N)NC(=O)[C@@H]1CCCN1C(=O)[C@H](CCCCN)NC(=O)CN)[C@@H](C)O)C(=O)N[C@@H](CCCNC(=N)N)C(=O)N[C@H](C(=O)O)C(C)C [Drosocin] (H-GKPRPYSPRPTSHPRPIRV-OH)	21	1.6	–
Magainin I: Magainins: 23 amino acids in length, derived from the African Clawed Frog (GIGKFLHSAGKFGKAFVGEIMKS; Magainin-1; UniProt P11006 37-59, looked up)	30	1.3	–
CC[C@H](C)[C@H](NC(=O)[C@H](CCCNC(=N)N)NC(=O)[C@H](C)NC(=O)[C@H](CCCCN)NC(=O)[C@@H](NC(=O)[C@H](CCCCN)NC(=O)[C@H](CC(C)C)NC(=O)[C@H](CCCNC(=N)N)NC(=O)[C@@H](NC(=O)[C@H](CCCNC(=N)N)NC(=O)[C@H](C)NC(=O)[C@H](CCCCN)NC(=O)[C@@H](NC(=O)[C@H](CCCNC(=N)N)NC(=O)[C@@H](N)Cc1ccccc1)C(C)C)[C@@H](C)CC)C(C)C)C(=O)N[C@@H](CCCNC(=N)N)C(=O)N[C@@H](CC(C)C)C(=O)O [AGM 179] (H-FRVKARIRLKVKARIRL-OH; N-terminus and C-terminus assumed)	–	2.1	–
Pyrrhocoricin (D): naturally derived molecule tested for comparative purposes (VDKGSYLPRPTPPRPIYNRN; not fully specified; UniProt P37362 1-20, looked up)	23.33	–	Mean of Hemolysis [1, 3]: 1.9 µM
Pyrrhocoricin (H): naturally derived molecule tested for comparative purposes (VDKGSYLPRPTPPRPIYNRN; UniProt P37362 1-20, looked up)	26.67	–	Mean of Hemolysis [1, 3]: 1.6 µM
KAFKKAFKKFKKACFKGLCAKKFKKFAKKFAK [AGM 183]	–	–	Mean [2]: 1.44; MIC for B3 (Xanthomonas): 1; MIC for B2 (Sinorhizobium): 0.3; MIC for B1 (agrobacterium): 3
Indolicidin	5.33	2	–
Cecropin A	3.83	–	–
LL-37	1	5.1	–
CC[C@H](C)[C@H](NC(=O)CNC(=O)[C@H](CC(N)=O)NC(=O)[C@H](CCCNC(=N)N)NC(=O)[C@@H](NC(=O)[C@H](CC(N)=O)NC(=O)[C@H](CCCNC(=N)N)NC(=O)CNC(=O)[C@H](CCSC)NC(=O)[C@H](CCCCN)NC(=O)[C@H](CCC(=O)O)NC(=O)[C@@H](NC(=O)[C@H](CCCCN)NC(=O)[C@H](CCCCN)NC(=O)[C@H](Cc1ccccc1)NC(=O)[C@@H](NC(=O)[C@H](CCCCN)NC(=O)[C@H](Cc1c[nH]c2ccccc12)NC(=O)[C@@H](N)CCCCN)C(C)C)[C@@H](C)CC)[C@@H](C)CC)C(=O)N[C@H](C(=O)N[C@@H](CCCCN)C(=O)N[C@@H](C)C(=O)NCC(=O)N1CCC[C@H]1C(=O)N[C@@H](C)C(=O)N[C@H](C(=O)N[C@@H](C)C(=O)N[C@H](C(=O)N[C@@H](CC(C)C)C(=O)NCC(=O)N[C@@H](CCC(=O)O)C(=O)N[C@@H](C)C(=O)N[C@@H](CCCCN)C(=O)N[C@@H](C)C(=O)N[C@@H](CC(C)C)C(N)=O)C(C)C)[C@@H](C)CC)C(C)C [Cecropin B] (H-KWKVFKKIEKMGRNIRNGIVKAGPAIAVLGEAKAL-NH2)	–	1.2	–
KIKARLCLGKFCIKARLK [AGM 182]	–	–	Mean [2]: 0.77; MIC for B3 (Xanthomonas): 1; MIC for B2 (Sinorhizobium): 0.3; MIC for B1 (agrobacterium): 1
CC[C@H](C)[C@H](NC(=O)[C@H](CCCNC(=N)N)NC(=O)[C@@H]1CCCN1C(=O)[C@H](Cc1cnc[nH]1)NC(=O)[C@@H]1CCCN1C(=O)[C@@H]1CCCN1C(=O)[C@H](CCCNC(=N)N)NC(=O)[C@@H]1CCCN1C(=O)[C@H](CCC(N)=O)NC(=O)[C@@H]1CCCN1C(=O)[C@@H](NC(=O)[C@H](Cc1ccc(O)cc1)NC(=O)[C@@H](NC(=O)[C@@H]1CCCN1C(=O)[C@H](CCCNC(=N)N)NC(=O)[C@H](CC(N)=O)NC(=O)[C@H](CC(N)=O)NC(=O)CN)C(C)C)[C@@H](C)CC)C(=O)O [Apidaecin IA] (H-GNNRPVYIPQPRPPHPRI-OH)	20.67	1.6	–
Magainin II	30	1.5	–
CC[C@H](C)[C@H](NC(=O)[C@H](CCCNC(=N)N)NC(=O)[C@H](CC(C)C)NC(=O)[C@H](CCCCN)NC(=O)[C@@H](NC(=O)[C@H](CCCCN)NC(=O)[C@H](C)NC(=O)[C@H](CCCNC(=N)N)NC(=O)[C@@H](NC(=O)[C@H](CCCNC(=N)N)NC(=O)[C@@H](N)Cc1ccccc1)[C@@H](C)CC)C(C)C)C(=O)N[C@@H](CCCNC(=N)N)C(=O)N[C@@H](C)C(=O)N[C@@H](CCCCN)C(=O)N[C@H](C(=O)N[C@@H](CCCNC(=N)N)C(=O)N[C@@H](CC(C)C)C(=O)O)C(C)C [AGM 178] (H-FRIRAKVKLRIRAKVRL-OH; N-terminus and C-terminus assumed)	–	1.2	–
CC[C@H](C)[C@H](NC(=O)CN)C(=O)NCC(=O)N[C@@H](C)C(=O)N[C@H](C(=O)N[C@@H](CC(C)C)C(=O)N[C@@H](CCCCN)C(=O)N[C@H](C(=O)N[C@@H](CC(C)C)C(=O)N[C@H](C(=O)N[C@H](C(=O)NCC(=O)N[C@@H](CC(C)C)C(=O)N1CCC[C@H]1C(=O)N[C@@H](C)C(=O)N[C@@H](CC(C)C)C(=O)N[C@H](C(=O)N[C@@H](CO)C(=O)N[C@@H](Cc1c[nH]c2ccccc12)C(=O)N[C@H](C(=O)N[C@@H](CCCCN)C(=O)N[C@@H](CCCNC(=N)N)C(=O)N[C@@H](CCCCN)C(=O)N[C@@H](CCCNC(=N)N)C(=O)N[C@@H](CCC(N)=O)C(=O)N[C@@H](CCC(N)=O)C(N)=O)[C@@H](C)CC)[C@@H](C)CC)[C@@H](C)O)[C@@H](C)O)C(C)C)C(C)C [Melittin]	1.33	–	Mean of Hemolysis [1, 3]: 100.8 µM
KFAKKFKKFAKKFCFKGLCAFKKAFKKFKKAF [AGM 184]	–	–	Mean [2]: 0.77; MIC for B3 (Xanthomonas): 1; MIC for B2 (Sinorhizobium): 0.3; MIC for B1 (agrobacterium): 1
CC[C@H](C)[C@H](NC(=O)[C@H](CCCCN)NC(=O)[C@H](C)NC(=O)[C@H](CCCNC(=N)N)NC(=O)[C@H](CC(C)C)NC(=O)[C@H](CCCNC(=N)N)NC(=O)[C@@H](NC(=O)[C@H](CCCCN)NC(=O)[C@@H](NC(=O)[C@H](CCCCN)NC(=O)[C@H](C)NC(=O)[C@H](CCCNC(=N)N)NC(=O)[C@H](CC(C)C)NC(=O)[C@H](CCCCN)NC(=O)[C@@H](N)Cc1ccccc1)C(C)C)[C@@H](C)CC)C(=O)N[C@@H](CCCCN)C(=O)N[C@@H](CC(C)C)C(=O)O [AGM 155] (H-FKLRAKVKIRLRAKIKL-OH; N-terminus and C-terminus assumed)	–	1.6	–
CC[C@H](C)[C@H](NC(=O)[C@H](CCCCN)NC(=O)[C@@H](NC(=O)[C@H](CCCNC(=N)N)NC(=O)[C@H](CC(C)C)NC(=O)[C@H](CCCNC(=N)N)NC(=O)[C@H](C)NC(=O)[C@H](CCCCN)NC(=O)[C@@H](NC(=O)[C@H](CCCCN)NC(=O)[C@@H](N)Cc1ccccc1)[C@@H](C)CC)C(C)C)C(=O)N[C@@H](CCCCN)C(=O)N[C@@H](C)C(=O)N[C@@H](CCCNC(=N)N)C(=O)N[C@@H](CC(C)C)C(=O)N[C@@H](CCCCN)C(=O)N[C@@H](CC(C)C)C(=O)O [AGM 176] (H-FKIKARLRVKIKARLKL-OH; N-terminus and C-terminus assumed)	–	1.3	–
KARLKFCFKGLCIKIKVR [AGM 181]	–	–	Mean [2]: 0.77; MIC for B3 (Xanthomonas): 1; MIC for B2 (Sinorhizobium): 0.3; MIC for B1 (agrobacterium): 1
Histatin-5	30	1.8	–

— patent publication US9163066B2, “Antimicrobial lytic peptides” (priority 2010, dated 2015)
